Read-outs that look alike come from different tables or passages of the source.
Legend:
[1] = tested on: T lymphocyte proliferation (C57BI/6 spleen cells with irradiated BALB/c spleen cells); test: Mixed lymphocyte reaction (MLR), one-way; assay type: cell-based, mice; settings: read-out: MLR IC50
How it was run: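 Irradiated BALB/c spleen cells mixed with C57BI/6 spleen cells in RPMI1640/10% heat-inactivated FBS/2-mercaptoethanol, with serial antagonist dilutions; 3 days at 5% CO2. Tritiated thymidine (0.5 μCi/well) added on day 3; incorporation counted by liquid scintillation after a further 6 h.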

[2] = molecular target: T1, LFA-1 binding to immobilized ICAM-1 (Homo sapiens, UniProt P05107+P20701); test: LFA-1/ICAM-1 protein-protein assay (solid-phase ELISA); settings: read-out: LFA-1/ICAM-1 Protein-Protein Assay IC50
T1 construct: made in house; host or cells: transfected 293 cells (LFA-1)
How it was run: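 Human 5dICAM-Ig (ICAM-1 extracellular domain–IgG Fc) coated on plates; membrane-bound LFA-1 from transfected 293 cells (280 ng/mL) added with compound in Mn2+-containing HEPES buffer pH 7.2, 2 h at 37° C. Bound LFA-1 detected via anti-β2 antibody and HRP/TMB at 450 nm; IC50s determined.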

T1 sequence (P20701 26-1170): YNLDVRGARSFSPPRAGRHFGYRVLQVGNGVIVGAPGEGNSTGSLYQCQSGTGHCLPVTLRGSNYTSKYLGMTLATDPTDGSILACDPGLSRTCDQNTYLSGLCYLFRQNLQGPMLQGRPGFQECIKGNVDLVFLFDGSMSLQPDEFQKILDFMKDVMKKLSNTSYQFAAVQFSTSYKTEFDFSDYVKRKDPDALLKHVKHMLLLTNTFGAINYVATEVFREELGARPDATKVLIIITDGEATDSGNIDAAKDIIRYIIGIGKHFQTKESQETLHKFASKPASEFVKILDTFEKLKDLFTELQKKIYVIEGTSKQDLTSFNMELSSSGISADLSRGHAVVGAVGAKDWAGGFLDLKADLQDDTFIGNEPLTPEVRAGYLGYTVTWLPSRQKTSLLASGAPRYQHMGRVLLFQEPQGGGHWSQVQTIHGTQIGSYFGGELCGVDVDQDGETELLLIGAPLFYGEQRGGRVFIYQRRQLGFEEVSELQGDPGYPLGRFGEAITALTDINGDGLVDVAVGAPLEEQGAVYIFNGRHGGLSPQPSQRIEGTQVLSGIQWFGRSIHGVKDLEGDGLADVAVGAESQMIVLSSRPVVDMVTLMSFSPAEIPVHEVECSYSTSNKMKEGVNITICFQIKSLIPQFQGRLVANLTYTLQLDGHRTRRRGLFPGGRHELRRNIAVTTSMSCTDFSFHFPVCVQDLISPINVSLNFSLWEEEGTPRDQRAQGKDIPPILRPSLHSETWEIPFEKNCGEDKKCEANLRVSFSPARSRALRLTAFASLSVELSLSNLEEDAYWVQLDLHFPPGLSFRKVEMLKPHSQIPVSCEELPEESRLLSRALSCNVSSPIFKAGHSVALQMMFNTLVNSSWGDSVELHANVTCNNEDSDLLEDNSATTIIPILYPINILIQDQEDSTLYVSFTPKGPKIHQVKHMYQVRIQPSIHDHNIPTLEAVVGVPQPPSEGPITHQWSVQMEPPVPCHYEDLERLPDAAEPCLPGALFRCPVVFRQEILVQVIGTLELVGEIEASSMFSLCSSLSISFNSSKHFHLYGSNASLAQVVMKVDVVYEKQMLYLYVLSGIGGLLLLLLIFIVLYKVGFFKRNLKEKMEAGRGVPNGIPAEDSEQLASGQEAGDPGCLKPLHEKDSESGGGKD
T1 sequence (P05107 23-769): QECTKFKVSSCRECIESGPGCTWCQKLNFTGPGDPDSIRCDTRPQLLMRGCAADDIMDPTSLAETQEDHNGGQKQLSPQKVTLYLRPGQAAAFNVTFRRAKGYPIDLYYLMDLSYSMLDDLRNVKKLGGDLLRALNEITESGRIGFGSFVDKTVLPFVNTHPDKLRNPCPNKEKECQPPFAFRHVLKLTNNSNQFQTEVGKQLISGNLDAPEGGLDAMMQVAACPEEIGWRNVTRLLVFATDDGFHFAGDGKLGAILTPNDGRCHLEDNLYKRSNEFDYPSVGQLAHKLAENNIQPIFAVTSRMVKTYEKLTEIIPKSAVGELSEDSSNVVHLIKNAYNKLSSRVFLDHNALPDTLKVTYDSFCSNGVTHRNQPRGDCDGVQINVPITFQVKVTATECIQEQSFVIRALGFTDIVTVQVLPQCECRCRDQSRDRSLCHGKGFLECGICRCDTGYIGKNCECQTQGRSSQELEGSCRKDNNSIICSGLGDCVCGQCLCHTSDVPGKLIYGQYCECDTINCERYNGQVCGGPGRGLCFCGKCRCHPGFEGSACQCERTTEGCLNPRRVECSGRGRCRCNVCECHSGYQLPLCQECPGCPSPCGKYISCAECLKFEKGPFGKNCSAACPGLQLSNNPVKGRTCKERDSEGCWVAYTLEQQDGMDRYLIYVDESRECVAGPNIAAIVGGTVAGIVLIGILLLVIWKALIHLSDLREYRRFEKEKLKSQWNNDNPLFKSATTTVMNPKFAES

C[C@@H](NC(=O)c1cc(Cl)c(C(=O)N[C@@H](CNC(=O)c2cccs2)C(=O)O)c(Cl)c1)c1cccc2ccccc12 [Example 346, N-[2,6-dichloro-4-[[[(1R)-1-(1-naphthalenyl)ethyl]amino]carbonyl]benzoyl]-3-[(thiophene-2-carbonyl)amino]-L-alanine]
IC50 ([1]; Mus musculus, T-lymphocyte): 68 nM | IC50 [2]: 2.1 nM

O=C(NCc1cccc(O)c1)c1ccc(C(=O)N[C@@H](CNC(=O)c2cccc(O)c2)C(=O)O)c(Cl)c1 [Example 132]
IC50 ([1]; Mus musculus, T-lymphocyte): 82 nM | IC50 [2]: 0.6 nM

Cc1noc(C)c1C(=O)NC[C@H](NC(=O)c1ccc(C(=O)NCc2cccc(O)c2)cc1Cl)C(=O)O [Example 153]
IC50 [2]: 7.7 nM

C/C=C/C(=O)NC[C@H](NC(=O)c1ccc(C(=O)NCc2cccc(O)c2)cc1Cl)C(=O)O [Example 113]
IC50 ([1]; Mus musculus, T-lymphocyte): 350 nM | IC50 [2]: 1.7 nM

COc1ccc(C(=O)NC[C@H](NC(=O)c2ccc(C(=O)NCc3cccc(O)c3)cc2Cl)C(=O)O)cc1 [Example 135]
IC50 ([1]; Mus musculus, T-lymphocyte): 2640 nM | IC50 [2]: 6.3 nM

Nc1cccc(C(=O)NC[C@H](NC(=O)c2ccc(C(=O)NCc3cccc(O)c3)cc2Cl)C(=O)O)c1 [Example 118]
IC50 [1]: 145 nM | IC50 [2]: 1.9 nM

CC(=O)Oc1ccccc1C(=O)NC[C@H](NC(=O)c1ccc(C(=O)NCc2cccc(O)c2)cc1Cl)C(=O)O [Example 117]
IC50 ([1]; Mus musculus, T-lymphocyte): 290 nM | IC50 [2]: 3.6 nM

Cc1ccc(C(=O)NC[C@H](NC(=O)c2ccc(C(=O)NCc3cccc(O)c3)cc2Cl)C(=O)O)cc1 [Example 139]
IC50 ([1]; Mus musculus, T-lymphocyte): 1750 nM | IC50 [2]: 4.8 nM

COC(=O)c1cccc(C(=O)NC[C@H](NC(=O)c2ccc(C(=O)NCc3cccc(O)c3)cc2Cl)C(=O)O)c1 [Example 136]
IC50 ([1]; Mus musculus, T-lymphocyte): 490 nM | IC50 [2]: 2 nM

N#Cc1cccc(C(=O)NC[C@H](NC(=O)c2ccc(C(=O)NCc3cccc(O)c3)cc2Cl)C(=O)O)c1 [Example 126]
IC50 ([1]; Mus musculus, T-lymphocyte): 400 nM | IC50 [2]: 1.2 nM

O=C(NCc1cccc(O)c1)c1ccc(C(=O)N[C@@H](CNC(=O)c2ccc([N+](=O)[O-])o2)C(=O)O)c(Cl)c1 [Example 149]
IC50 ([1]; Mus musculus, T-lymphocyte): 950 nM | IC50 [2]: 2.9 nM

Cc1ccsc1C(=O)NC[C@H](NC(=O)c1ccc(C(=O)NCc2cccc(O)c2)cc1Cl)C(=O)O [Example 159]
IC50 ([1]; Mus musculus, T-lymphocyte): 165 nM | IC50 [2]: 0.9 nM

CC1(C(=O)NC[C@H](NC(=O)c2ccc(C(=O)NCc3cccc(O)c3)cc2Cl)C(=O)O)CCCCC1 [Example 105]
IC50 ([1]; Mus musculus, T-lymphocyte): 280 nM | IC50 [2]: 1.9 nM

O=C(NC[C@H](NC(=O)c1ccc(C(=O)[C@H]2C[C@@H]2c2ccccc2)cc1Cl)C(=O)O)c1cccs1 [Example 377]
IC50 ([1]; Mus musculus, T-lymphocyte): 9500 nM | IC50 [2]: 19 nM

Cc1ccc(C(=O)NC[C@H](NC(=O)c2c(Cl)cc(C(=O)NCc3cccc(O)c3)cc2Cl)C(=O)O)s1 [Example 358]
IC50 ([1]; Mus musculus, T-lymphocyte): 64 nM | IC50 [2]: 0.2 nM

O=C(NCc1ccc(C(=O)N[C@@H](CNC(=O)c2ccccc2)C(=O)O)c(Cl)c1)c1cccc(O)c1 [Example 364, N-[2-chloro-4-[[(3-hydroxyphenyl)carbonyl]aminomethyl]benzoyl]-3-benzoylamino-L-alanine]
IC50 ([1]; Mus musculus, T-lymphocyte): 2850 nM | IC50 [2]: 7.7 nM

O=C(NCc1cccc(O)c1)c1ccc(C(=O)N[C@@H](CNC(=O)c2ccccc2[N+](=O)[O-])C(=O)O)c(Cl)c1 [Example 140]
IC50 ([1]; Mus musculus, T-lymphocyte): 350 nM | IC50 [2]: 1.8 nM

O=C1CC[C@@H](C(=O)NC[C@H](NC(=O)c2ccc(C(=O)NCc3cccc(O)c3)cc2Cl)C(=O)O)O1 [Example 96]
IC50 ([1]; Mus musculus, T-lymphocyte): 1300 nM | IC50 [2]: 3.1 nM

O=C(NCc1cccc(O)c1)c1ccc(C(=O)N[C@@H](CNC(=O)c2ccco2)C(=O)O)c(Cl)c1 [Example 148]
IC50 ([1]; Mus musculus, T-lymphocyte): 335 nM | IC50 [2]: 1.4 nM

O=C(NCc1cccc(O)c1)c1cc(Cl)c(C(=O)N[C@@H](CNC(=O)c2ccc(Br)s2)C(=O)O)c(Cl)c1 [Example 354]
IC50 ([1]; Mus musculus, T-lymphocyte): 203 nM | IC50 [2]: 1 nM

O=C(NCc1cccc(O)c1)c1ccc(C(=O)N[C@@H](CNC(=O)c2ccc(Cl)s2)C(=O)O)c(Cl)c1 [Example 157]
IC50 ([1]; Mus musculus, T-lymphocyte): 700 nM | IC50 [2]: 1.2 nM

COCCC1(C(=O)NC[C@H](NC(=O)c2ccc(C(=O)NCc3cccc(O)c3)cc2Cl)C(=O)O)CCCC1 [Example 102]
IC50 ([1]; Mus musculus, T-lymphocyte): 400 nM | IC50 [2]: 2.2 nM

O=C(NCc1cccc(O)c1)c1ccc(C(=O)N[C@@H](CNC(=O)c2ccccc2Br)C(=O)O)c(Cl)c1 [Example 120]
IC50 ([1]; Mus musculus, T-lymphocyte): 890 nM | IC50 [2]: 4.9 nM

O=C(CCN1CCCCC1)NC[C@H](NC(=O)c1ccc(C(=O)NCc2cccc(O)c2)cc1Cl)C(=O)O [Example 112]
IC50 ([1]; Mus musculus, T-lymphocyte): 375 nM | IC50 [2]: 1.5 nM

O=C(NCc1cccc(O)c1)c1ccc(C(=O)N[C@@H](CNC(=O)C2CCCCC2)C(=O)O)c(Cl)c1 [Example 104]
IC50 ([1]; Mus musculus, T-lymphocyte): 775 nM | IC50 [2]: 3.5 nM

O=C(NCc1cccc(O)c1)c1ccc(C(=O)N[C@@H](CNC(=O)c2cc(F)c(F)cc2F)C(=O)O)c(Cl)c1 [Example 145]
IC50 ([1]; Mus musculus, T-lymphocyte): 1450 nM | IC50 [2]: 1.7 nM

O=C(NCc1cccc(O)c1)c1ccc(C(=O)N[C@@H](CNC(=O)c2cccc(C(F)(F)F)c2)C(=O)O)c(Cl)c1 [Example 146]
IC50 ([1]; Mus musculus, T-lymphocyte): 490 nM | IC50 [2]: 2.6 nM

O=C(NCc1cccc(O)c1)c1ccc(C(=O)N[C@@H](CNS(=O)(=O)c2ccccc2)C(=O)O)c(Cl)c1 [Example 360, 3-(phenylsulfonylamino)-N-[2-chloro-4-[[[(3-hydroxyphenyl)methyl]amino]carbonyl]benzoyl]-L-alanine]
IC50 ([1]; Mus musculus, T-lymphocyte): 4600 nM | IC50 [2]: 5.2 nM

O=C(NCc1cccc(O)c1)c1ccc(C(=O)N[C@@H](CNC(=O)c2cccc(I)c2)C(=O)O)c(Cl)c1 [Example 133]
IC50 ([1]; Mus musculus, T-lymphocyte): 625 nM | IC50 [2]: 1.5 nM

COc1ccc(C(=O)NC[C@H](NC(=O)c2c(Cl)cc(C(=O)NCc3cccc(O)c3)cc2Cl)C(=O)O)cc1O [Example 351]
IC50 ([1]; Mus musculus, T-lymphocyte): 23 nM | IC50 [2]: 0.8 nM

CCCCCOc1ccc(C(=O)NC[C@H](NC(=O)c2ccc(C(=O)NCc3cccc(O)c3)cc2Cl)C(=O)O)cc1 [Example 143]
IC50 ([1]; Mus musculus, T-lymphocyte): 12000 nM | IC50 [2]: 11 nM

O=C(NCc1cccc(O)c1)c1ccc(C(=O)N[C@@H](CNC(=O)c2ccc[nH]2)C(=O)O)c(Cl)c1 [Example 151]
IC50 ([1]; Mus musculus, T-lymphocyte): 265 nM | IC50 [2]: 2.8 nM

O=C(NCc1cccc(O)c1)c1ccc(C(=O)N[C@@H](CNC(=O)c2ccsc2)C(=O)O)c(Cl)c1 [Example 161]
IC50 ([1]; Mus musculus, T-lymphocyte): 94 nM | IC50 [2]: 1 nM

O=C(NCc1cccc(O)c1)c1ccc(C(=O)N[C@@H](CNC(=O)c2cccnc2)C(=O)O)c(Cl)c1 [Example 165]
IC50 ([1]; Mus musculus, T-lymphocyte): 800 nM | IC50 [2]: 1.3 nM

O=C(NC[C@H](NC(=O)c1ccc(/C=C/Cc2ccccc2)cc1Cl)C(=O)O)c1cccs1 [Example 373, N-[2-chloro-4-(3-phenyl-1-propenyl)benzoyl]-3-(thiophene-2-carbonyl)amino-L-alanine]
IC50 ([1]; Mus musculus, T-lymphocyte): 12500 nM | IC50 [2]: 7.7 nM

O=C(NCc1cccc(O)c1)c1ccc(C(=O)N[C@@H](CNC(=O)c2ccc(Br)o2)C(=O)O)c(Cl)c1 [Example 150]
IC50 ([1]; Mus musculus, T-lymphocyte): 800 nM | IC50 [2]: 2.5 nM

O=C(NCc1cccc(O)c1)c1ccc(C(=O)N[C@@H](CNC(=O)c2sccc2Br)C(=O)O)c(Cl)c1 [Example 154]
IC50 ([1]; Mus musculus, T-lymphocyte): 365 nM | IC50 [2]: 0.9 nM

O=C(NCc1cccc(O)c1)c1ccc(C(=O)N[C@@H](CNC(=O)C2(c3ccccc3)CCCC2)C(=O)O)c(Cl)c1 [Example 103]
IC50 ([1]; Mus musculus, T-lymphocyte): 520 nM | IC50 [2]: 1.6 nM

O=C(NCc1cccc(O)c1)c1ccc(C(=O)N[C@@H](CNC(=O)c2cccc(F)c2)C(=O)O)c(Cl)c1 [Example 131]
IC50 ([1]; Mus musculus, T-lymphocyte): 215 nM | IC50 [2]: 0.8 nM

O=C(NCc1ccc(C(=O)N[C@@H](CNC(=O)c2ccccc2)C(=O)O)c(Cl)c1)c1ccc2[nH]ccc2c1 [Example 368]
IC50 ([1]; Mus musculus, T-lymphocyte): 3850 nM | IC50 [2]: 11 nM

O=C(NCc1cccc(O)c1)c1ccc(C(=O)N[C@@H](CNC(=O)c2ccc(Br)s2)C(=O)O)c(Cl)c1 [Example 155]
IC50 ([1]; Mus musculus, T-lymphocyte): 750 nM | IC50 [2]: 0.7 nM

O=C(NCc1cccc(O)c1)c1ccc(C(=O)N[C@@H](CNC(=O)[C@H](CC2CCCCC2)n2cccc2)C(=O)O)c(Cl)c1 [Example 110]
IC50 ([1]; Mus musculus, T-lymphocyte): 10000 nM | IC50 [2]: 3.7 nM

O=C(NCc1cccc(O)c1)c1ccc(C(=O)N[C@@H](CNC(=O)c2ccccc2Cl)C(=O)O)c(Cl)c1 [Example 122]
IC50 ([1]; Mus musculus, T-lymphocyte): 925 nM | IC50 [2]: 2.8 nM

O=C(NCc1cccc(O)c1)c1cc(Cl)c(C(=O)N[C@@H](CNC(=O)c2cccc(F)c2)C(=O)O)c(Cl)c1 [Example 349]
IC50 ([1]; Mus musculus, T-lymphocyte): 42 nM | IC50 [2]: 1.1 nM

O=C(NCc1cccc(O)c1)c1ccc(C(=O)N[C@@H](CNC(=O)C2(c3ccccc3)CC2)C(=O)O)c(Cl)c1 [Example 99]
IC50 ([1]; Mus musculus, T-lymphocyte): 2000 nM | IC50 [2]: 7.5 nM

O=C(NCc1cccc(O)c1)c1ccc(C(=O)N[C@@H](CNC(=O)c2sccc2Cl)C(=O)O)c(Cl)c1 [Example 156]
IC50 ([1]; Mus musculus, T-lymphocyte): 465 nM | IC50 [2]: 1 nM

COc1cc(C(=O)NC[C@H](NC(=O)c2ccc(C(=O)NCc3cccc(O)c3)cc2Cl)C(=O)O)cc(OC)c1OC [Example 147]
IC50 ([1]; Mus musculus, T-lymphocyte): 4600 nM | IC50 [2]: 15 nM

N=C(N)NC[C@H](NC(=O)c1ccc(C(=O)NCc2cccc(O)c2)cc1Cl)C(=O)O [Example 371, N-[2-chloro-4-[[[(3-hydroxyphenyl)methyl]amino]-carbonyl]benzoyl]-3-(aminoiminomethyl)amino-L-alanine]
IC50 ([1]; Mus musculus, T-lymphocyte): 3500 nM | IC50 [2]: 10 nM

Cc1cccc(C(=O)NC[C@H](NC(=O)c2ccc(C(=O)NCc3cccc(O)c3)cc2Cl)C(=O)O)c1 [Example 138]
IC50 ([1]; Mus musculus, T-lymphocyte): 205 nM | IC50 [2]: 0.7 nM

O=C(NCc1cccc(O)c1)c1ccc(C(=O)N[C@@H](CNC(=O)c2cc(Br)c(Br)s2)C(=O)O)c(Cl)c1 [Example 158]
IC50 ([1]; Mus musculus, T-lymphocyte): 7600 nM | IC50 [2]: 7.5 nM

Reference: patent US20040006236A1, “Diaminopropionic acid derivatives” (priority 1999, published 2004)
